Some targets named below: Glucagon receptor (Homo sapiens, UniProt P47871); Substance-P receptor (Homo sapiens, UniProt P25103); D(1A) dopamine receptor (Homo sapiens, UniProt P21728); Histamine H3 receptor (Homo sapiens, UniProt Q9Y5N1).
The target of test [1] is T1, Corticotropin-releasing factor receptor 1 (Homo sapiens, UniProt P34998).
T1 sequence (P34998 whole entry): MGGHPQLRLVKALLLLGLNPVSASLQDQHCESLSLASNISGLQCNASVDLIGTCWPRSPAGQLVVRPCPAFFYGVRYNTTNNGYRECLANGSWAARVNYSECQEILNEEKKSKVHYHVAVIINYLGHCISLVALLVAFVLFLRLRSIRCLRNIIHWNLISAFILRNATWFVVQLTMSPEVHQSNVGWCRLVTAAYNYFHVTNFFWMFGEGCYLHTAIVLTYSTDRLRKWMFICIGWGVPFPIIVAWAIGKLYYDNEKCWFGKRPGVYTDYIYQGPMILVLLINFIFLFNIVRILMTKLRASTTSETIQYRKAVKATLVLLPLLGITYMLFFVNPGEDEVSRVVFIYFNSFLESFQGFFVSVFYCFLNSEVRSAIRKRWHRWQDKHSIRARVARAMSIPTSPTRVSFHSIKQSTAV

Test [2] concerns the target T2, Gastric inhibitory polypeptide receptor (Homo sapiens, UniProt P48546).
T2 sequence (P48546 whole entry): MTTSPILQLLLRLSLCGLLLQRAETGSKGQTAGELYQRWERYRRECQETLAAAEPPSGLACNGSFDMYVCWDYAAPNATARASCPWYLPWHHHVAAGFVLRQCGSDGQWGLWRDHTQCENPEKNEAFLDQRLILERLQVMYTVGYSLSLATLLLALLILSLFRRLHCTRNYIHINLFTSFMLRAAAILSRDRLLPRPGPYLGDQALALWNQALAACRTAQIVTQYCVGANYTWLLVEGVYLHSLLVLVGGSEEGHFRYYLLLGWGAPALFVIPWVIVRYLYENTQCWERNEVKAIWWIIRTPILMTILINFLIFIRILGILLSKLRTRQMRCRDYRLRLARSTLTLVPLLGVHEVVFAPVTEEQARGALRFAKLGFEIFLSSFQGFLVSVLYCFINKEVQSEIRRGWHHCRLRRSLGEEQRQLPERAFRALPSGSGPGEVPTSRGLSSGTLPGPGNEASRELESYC

The target of test [3] is T3, Neuropeptide Y receptor type 2 (Homo sapiens, UniProt P49146).
T3 sequence (P49146 whole entry): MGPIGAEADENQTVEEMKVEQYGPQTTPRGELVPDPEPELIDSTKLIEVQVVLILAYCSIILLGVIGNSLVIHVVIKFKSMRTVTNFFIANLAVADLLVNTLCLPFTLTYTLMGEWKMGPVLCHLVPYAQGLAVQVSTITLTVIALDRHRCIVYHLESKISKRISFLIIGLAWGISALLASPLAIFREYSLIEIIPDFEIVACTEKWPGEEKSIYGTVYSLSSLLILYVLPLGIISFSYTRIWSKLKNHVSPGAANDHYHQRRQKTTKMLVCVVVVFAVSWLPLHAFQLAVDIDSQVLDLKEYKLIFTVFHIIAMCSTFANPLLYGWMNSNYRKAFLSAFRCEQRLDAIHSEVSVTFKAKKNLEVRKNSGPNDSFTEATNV

The target in test [4] is Sodium channel protein type 5 subunit alpha (Homo sapiens, UniProt Q14524). The class given is functional, cell-based.
Test [5] deals with cGMP-inhibited 3',5'-cyclic phosphodiesterase 3A (Homo sapiens, UniProt Q14432). The test is classed as functional.
Test [6] concerns the target 3',5'-cyclic-AMP phosphodiesterase 4A (Homo sapiens, UniProt P27815). The test is classed as functional.
A further test concerns the target T4, Progesterone receptor (Homo sapiens, UniProt P06401).
T4 sequence (P06401 whole entry): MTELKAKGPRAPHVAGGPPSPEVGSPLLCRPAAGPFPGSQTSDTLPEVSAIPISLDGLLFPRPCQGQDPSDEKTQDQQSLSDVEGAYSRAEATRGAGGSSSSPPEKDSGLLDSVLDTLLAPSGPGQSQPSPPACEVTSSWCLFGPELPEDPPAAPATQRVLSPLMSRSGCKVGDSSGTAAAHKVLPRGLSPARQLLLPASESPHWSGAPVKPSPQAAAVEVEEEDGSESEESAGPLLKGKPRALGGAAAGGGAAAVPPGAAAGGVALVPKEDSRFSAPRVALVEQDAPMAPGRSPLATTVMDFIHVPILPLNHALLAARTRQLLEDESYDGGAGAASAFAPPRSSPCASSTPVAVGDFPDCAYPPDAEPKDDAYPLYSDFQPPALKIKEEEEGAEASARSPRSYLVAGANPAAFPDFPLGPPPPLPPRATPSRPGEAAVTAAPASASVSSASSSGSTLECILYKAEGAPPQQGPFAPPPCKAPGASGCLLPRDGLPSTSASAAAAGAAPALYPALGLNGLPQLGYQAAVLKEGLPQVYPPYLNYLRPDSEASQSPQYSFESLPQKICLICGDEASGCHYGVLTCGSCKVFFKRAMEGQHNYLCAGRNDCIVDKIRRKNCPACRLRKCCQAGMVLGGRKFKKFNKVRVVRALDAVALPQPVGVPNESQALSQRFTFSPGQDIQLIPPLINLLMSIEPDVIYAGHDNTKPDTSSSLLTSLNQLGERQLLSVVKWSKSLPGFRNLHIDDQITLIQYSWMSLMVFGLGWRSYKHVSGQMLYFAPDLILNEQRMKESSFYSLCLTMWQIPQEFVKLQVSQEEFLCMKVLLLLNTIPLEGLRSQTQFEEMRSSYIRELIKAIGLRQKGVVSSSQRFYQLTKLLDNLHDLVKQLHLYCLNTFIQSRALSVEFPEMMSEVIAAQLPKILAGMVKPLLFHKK

For test [7], the target named is Beta-1 adrenergic receptor (Homo sapiens, UniProt P08588). The class given is functional, cell-based.

AC50 data for six compounds are collected here from ChEMBL document CHEMBL5291721, “A preclinical secondary pharmacology resource illuminates target-adverse drug reaction associations of marketed drugs” (Nat Commun, 2023).

In general, AC50 refers to the concentration at which the activity in the assay is half-maximal.

Bounds are passed on as bounds.
Also: assay procedure not described here.

Chain of 3',5'-cyclic-AMP phosphodiesterase 4A (P27815 whole entry): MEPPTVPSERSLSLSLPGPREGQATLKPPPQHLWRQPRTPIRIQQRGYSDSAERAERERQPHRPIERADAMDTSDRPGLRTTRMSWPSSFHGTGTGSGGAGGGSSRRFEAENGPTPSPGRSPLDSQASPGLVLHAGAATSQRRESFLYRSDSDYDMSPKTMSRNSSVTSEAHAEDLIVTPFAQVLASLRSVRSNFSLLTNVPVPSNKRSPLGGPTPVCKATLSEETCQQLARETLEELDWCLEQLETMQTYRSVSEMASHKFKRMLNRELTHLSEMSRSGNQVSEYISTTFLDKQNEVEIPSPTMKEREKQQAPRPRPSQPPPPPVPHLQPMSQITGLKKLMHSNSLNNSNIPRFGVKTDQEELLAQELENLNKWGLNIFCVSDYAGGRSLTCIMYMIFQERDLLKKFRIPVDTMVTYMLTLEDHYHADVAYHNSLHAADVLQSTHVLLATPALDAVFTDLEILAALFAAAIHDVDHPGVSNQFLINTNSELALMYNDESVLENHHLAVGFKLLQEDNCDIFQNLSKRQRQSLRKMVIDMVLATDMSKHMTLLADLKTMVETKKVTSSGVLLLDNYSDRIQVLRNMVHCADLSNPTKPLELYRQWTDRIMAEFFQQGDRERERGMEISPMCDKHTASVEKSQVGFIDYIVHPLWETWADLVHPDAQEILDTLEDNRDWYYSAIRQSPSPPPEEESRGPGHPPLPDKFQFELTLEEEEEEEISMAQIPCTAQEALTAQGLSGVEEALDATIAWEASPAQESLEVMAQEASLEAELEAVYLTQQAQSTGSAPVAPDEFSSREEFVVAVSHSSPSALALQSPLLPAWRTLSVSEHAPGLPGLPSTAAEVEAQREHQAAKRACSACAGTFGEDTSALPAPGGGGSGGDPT
Chain of Substance-P receptor (P25103 whole entry): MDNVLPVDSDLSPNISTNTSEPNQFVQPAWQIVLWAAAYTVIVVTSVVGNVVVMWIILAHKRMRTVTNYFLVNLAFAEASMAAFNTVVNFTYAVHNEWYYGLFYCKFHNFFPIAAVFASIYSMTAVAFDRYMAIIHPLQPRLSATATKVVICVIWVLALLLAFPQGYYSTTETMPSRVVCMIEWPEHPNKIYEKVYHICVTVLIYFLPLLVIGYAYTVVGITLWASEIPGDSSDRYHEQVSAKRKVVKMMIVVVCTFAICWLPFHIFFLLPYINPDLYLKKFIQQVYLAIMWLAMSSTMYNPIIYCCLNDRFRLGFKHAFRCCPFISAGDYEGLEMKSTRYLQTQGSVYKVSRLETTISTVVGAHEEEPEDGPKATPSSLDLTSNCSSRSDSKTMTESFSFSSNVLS
Chain of cGMP-inhibited 3',5'-cyclic phosphodiesterase 3A (Q14432 whole entry): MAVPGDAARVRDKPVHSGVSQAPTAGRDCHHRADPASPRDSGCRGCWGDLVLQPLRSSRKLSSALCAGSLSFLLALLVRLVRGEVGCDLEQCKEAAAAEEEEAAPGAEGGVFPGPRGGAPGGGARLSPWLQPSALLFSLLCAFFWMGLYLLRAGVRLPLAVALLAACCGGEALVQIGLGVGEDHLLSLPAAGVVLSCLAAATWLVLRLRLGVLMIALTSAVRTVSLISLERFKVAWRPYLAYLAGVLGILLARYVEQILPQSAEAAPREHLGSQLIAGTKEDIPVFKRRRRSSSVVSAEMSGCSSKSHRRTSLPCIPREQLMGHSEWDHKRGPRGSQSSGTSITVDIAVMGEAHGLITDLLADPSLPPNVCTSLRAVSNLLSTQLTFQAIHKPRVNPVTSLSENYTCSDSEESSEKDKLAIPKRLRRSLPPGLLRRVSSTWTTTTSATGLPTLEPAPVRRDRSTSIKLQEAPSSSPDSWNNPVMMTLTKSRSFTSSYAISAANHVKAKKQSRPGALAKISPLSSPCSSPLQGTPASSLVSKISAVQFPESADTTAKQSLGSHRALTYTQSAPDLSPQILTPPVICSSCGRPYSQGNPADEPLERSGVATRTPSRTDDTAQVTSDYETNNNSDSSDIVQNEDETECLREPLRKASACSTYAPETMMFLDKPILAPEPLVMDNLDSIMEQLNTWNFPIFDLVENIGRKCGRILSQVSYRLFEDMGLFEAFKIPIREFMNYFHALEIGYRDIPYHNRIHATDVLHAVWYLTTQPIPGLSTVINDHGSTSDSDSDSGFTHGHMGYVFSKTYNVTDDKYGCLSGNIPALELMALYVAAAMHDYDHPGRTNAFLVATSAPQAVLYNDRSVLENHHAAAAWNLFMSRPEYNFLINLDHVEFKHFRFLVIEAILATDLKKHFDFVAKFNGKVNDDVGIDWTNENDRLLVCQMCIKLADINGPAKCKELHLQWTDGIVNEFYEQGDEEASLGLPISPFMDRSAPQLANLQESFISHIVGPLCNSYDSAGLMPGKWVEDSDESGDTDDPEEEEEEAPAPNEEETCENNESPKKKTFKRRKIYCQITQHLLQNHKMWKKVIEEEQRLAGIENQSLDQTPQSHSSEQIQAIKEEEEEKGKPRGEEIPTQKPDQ
Chain of Beta-1 adrenergic receptor (P08588 whole entry): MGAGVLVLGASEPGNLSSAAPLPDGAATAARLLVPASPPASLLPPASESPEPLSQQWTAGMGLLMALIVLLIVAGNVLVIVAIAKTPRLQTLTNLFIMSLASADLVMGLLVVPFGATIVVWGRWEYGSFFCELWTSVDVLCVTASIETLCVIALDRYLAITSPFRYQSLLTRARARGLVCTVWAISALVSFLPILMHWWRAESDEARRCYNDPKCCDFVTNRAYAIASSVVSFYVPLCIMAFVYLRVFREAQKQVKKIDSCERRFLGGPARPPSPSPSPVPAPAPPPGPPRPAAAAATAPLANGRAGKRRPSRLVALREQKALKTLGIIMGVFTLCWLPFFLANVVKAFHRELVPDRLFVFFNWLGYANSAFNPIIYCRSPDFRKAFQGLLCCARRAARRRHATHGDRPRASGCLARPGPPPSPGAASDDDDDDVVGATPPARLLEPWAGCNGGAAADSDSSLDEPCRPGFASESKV
Chain of Glucagon receptor (P47871 whole entry): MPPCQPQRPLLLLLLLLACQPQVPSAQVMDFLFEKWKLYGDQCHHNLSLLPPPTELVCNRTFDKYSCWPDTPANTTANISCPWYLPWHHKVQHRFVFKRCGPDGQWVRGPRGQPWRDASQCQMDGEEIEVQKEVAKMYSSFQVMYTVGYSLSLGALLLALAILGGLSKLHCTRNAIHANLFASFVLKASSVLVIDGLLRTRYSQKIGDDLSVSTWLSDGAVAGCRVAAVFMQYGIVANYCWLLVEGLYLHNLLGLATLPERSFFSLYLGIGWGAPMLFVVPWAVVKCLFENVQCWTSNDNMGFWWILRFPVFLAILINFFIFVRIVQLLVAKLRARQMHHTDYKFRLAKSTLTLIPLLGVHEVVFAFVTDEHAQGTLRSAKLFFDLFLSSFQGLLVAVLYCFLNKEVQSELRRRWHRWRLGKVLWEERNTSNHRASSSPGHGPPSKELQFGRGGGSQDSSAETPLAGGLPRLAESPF
Chain of D(1A) dopamine receptor (P21728 whole entry): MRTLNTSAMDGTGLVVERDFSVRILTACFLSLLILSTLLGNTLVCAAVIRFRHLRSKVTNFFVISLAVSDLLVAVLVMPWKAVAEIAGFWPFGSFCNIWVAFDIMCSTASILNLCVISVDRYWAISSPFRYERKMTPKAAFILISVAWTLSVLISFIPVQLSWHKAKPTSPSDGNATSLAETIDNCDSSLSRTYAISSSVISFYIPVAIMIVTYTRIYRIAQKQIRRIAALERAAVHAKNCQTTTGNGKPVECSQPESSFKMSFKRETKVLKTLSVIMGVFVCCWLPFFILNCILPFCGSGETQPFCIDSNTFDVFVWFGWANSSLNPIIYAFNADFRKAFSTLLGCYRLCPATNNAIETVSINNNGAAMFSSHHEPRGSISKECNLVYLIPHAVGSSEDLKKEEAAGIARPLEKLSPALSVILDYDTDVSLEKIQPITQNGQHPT
Chain of Histamine H3 receptor (Q9Y5N1 whole entry): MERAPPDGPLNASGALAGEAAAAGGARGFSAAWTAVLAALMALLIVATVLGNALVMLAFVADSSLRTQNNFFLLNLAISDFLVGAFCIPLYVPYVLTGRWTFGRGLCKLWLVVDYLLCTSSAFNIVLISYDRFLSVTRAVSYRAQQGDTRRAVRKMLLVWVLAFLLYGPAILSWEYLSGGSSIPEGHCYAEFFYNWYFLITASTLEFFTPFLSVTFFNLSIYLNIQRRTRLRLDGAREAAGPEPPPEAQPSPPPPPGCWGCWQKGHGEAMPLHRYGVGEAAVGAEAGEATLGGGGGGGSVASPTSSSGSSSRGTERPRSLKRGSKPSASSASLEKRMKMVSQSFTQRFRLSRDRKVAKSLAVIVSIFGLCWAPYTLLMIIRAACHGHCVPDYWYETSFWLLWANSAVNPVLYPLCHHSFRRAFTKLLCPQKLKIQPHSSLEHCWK

For the compound `Cc1c(OCC(F)(F)F)ccnc1C[S+]([O-])c1nc2ccccc2[nH]1` (centres undefined) [LANSOPRAZOLE], the AC50 in [1] is > 30 µM; on Glucagon receptor it was > 30 µM; in test [2], > 30 µM; in test [3], > 30 µM; in [4] it was > 30 µM; on Substance-P receptor, 17.2 µM. For the same compound, the AC50 on D(1A) dopamine receptor is > 10 µM.

Consider `CO[C@]12C[C@@H](COC(=O)c3cncc(Br)c3)CN(C)[C@@H]1Cc1cn(C)c3cccc2c13` [NICERGOLINE], for which the AC50 is 7.91 µM on Histamine H3 receptor, > 30 µM in [5], > 30 µM in test [6] and > 30 µM at Progesterone receptor.

As to `C[C@@H]1O[C@@H](O[C@@H]2C=C3CC[C@@H]4[C@H](CC[C@]5(C)[C@@H](c6ccc(=O)oc6)CC[C@]45O)[C@@]3(C)CC2)[C@H](O)[C@H](O)[C@H]1O` [PROSCILLARIDIN], in test [7], the AC50 is > 30 µM.

In the case of `C#C[C@]1(O)CC[C@H]2[C@@H]3[C@H](C)CC4=C(CCC(=O)C4)[C@H]3CC[C@@]21C` [TIBOLONE], the concentration at half-maximal activity (AC50) in test [7] is > 30 µM.

Take `COc1cccc(C2(O)CCCCC2CN(C)C)c1` (centres undefined) [TRAMADOL]: the AC50 in test [1] is > 30 µM; on Glucagon receptor it was > 30 µM; in test [2], > 30 µM; in test [3], > 30 µM; at Substance-P receptor it was > 10 µM; at D(1A) dopamine receptor, > 10 µM.

Take THIMEROSAL: the AC50 was > 30 µM on Histamine H3 receptor; > 30 µM in [5]; > 30 µM in test [6]; > 30 µM on Progesterone receptor; > 50 µM in test [4].
